Numbers after ± are expanded uncertainties.
Assays:
[1] = xn = mol fraction of the nth substance listed; details: 298.15 K, 101 kPa, Liquid, Sing-around technique in a fixed-path interferometer
[2] = 298.15 K, 101.33 kPa, Liquid; for mass density: Pycnometric method; for speed of sound: Sing-around technique in a fixed-path interferometer

CCCCOCCOCCO [3,6-dioxa-1-decanol] + CCCN
[1]
Details | speed of sound [m/s]
x1 = 0.0052 | 1215.5 ± 2.1
x1 = 0.0133 | 1218.1 ± 2.1
x1 = 0.0295 | 1223 ± 2.1
x1 = 0.0505 | 1228.7 ± 2.1
x1 = 0.0779 | 1236.9 ± 2.1
x1 = 0.1487 | 1256.7 ± 2.1
x1 = 0.2053 | 1272.3 ± 2.1
x1 = 0.2645 | 1286.7 ± 2.1
x1 = 0.318 | 1298.6 ± 2.1
x1 = 0.378 | 1310.2 ± 2.1
x1 = 0.4304 | 1319.4 ± 2.1
x1 = 0.4767 | 1326 ± 2.1
x1 = 0.5226 | 1331.6 ± 2.1
x1 = 0.5715 | 1336.8 ± 2.1
x1 = 0.6306 | 1342.1 ± 2.1
x1 = 0.6855 | 1346.2 ± 2.1
x1 = 0.7347 | 1349.4 ± 2.1
x1 = 0.7728 | 1351.3 ± 2.1
x1 = 0.8152 | 1353.3 ± 2.1
x1 = 0.87 | 1355.9 ± 2.1
x1 = 0.9073 | 1356.7 ± 2.1
x1 = 0.9289 | 1357.7 ± 2.1
x1 = 0.9504 | 1358.3 ± 2.1
x1 = 0.9663 | 1358.5 ± 2.1
x1 = 0.9813 | 1358.7 ± 2.1

CCCCOCCOCCOCCCC [5,8,11-trioxapentadecane]
[2]
Details | mass density [kg/m3] | speed of sound [m/s]
– | 878.55 ± 1.3 | 1270.1 ± 2.1

CCCN [propan-1-amine] + COCCO
[1]
Details | speed of sound [m/s]
x2 = 0.0036 | 1215.3 ± 2.1
x2 = 0.0101 | 1216.4 ± 2.1
x2 = 0.0272 | 1218.3 ± 2.1
x2 = 0.047 | 1221.7 ± 2.1
x2 = 0.0831 | 1227.4 ± 2.1
x2 = 0.1175 | 1232.5 ± 2.1
x2 = 0.1521 | 1238.8 ± 2.1
x2 = 0.1977 | 1247 ± 2.1
x2 = 0.2378 | 1254 ± 2.1
x2 = 0.2982 | 1265.6 ± 2.1
x2 = 0.3629 | 1276.6 ± 2.1
x2 = 0.4188 | 1285.8 ± 2.1
x2 = 0.474 | 1294.1 ± 2.1
x2 = 0.5181 | 1299.6 ± 2.1
x2 = 0.5862 | 1307.8 ± 2.1
x2 = 0.6459 | 1314.6 ± 2.1
x2 = 0.7102 | 1321.5 ± 2.1
x2 = 0.799 | 1329.7 ± 2.1
x2 = 0.8253 | 1331.6 ± 2.1
x2 = 0.8642 | 1334.2 ± 2.1
x2 = 0.8918 | 1336.2 ± 2.1
x2 = 0.908 | 1338 ± 2.1
x2 = 0.9316 | 1339.5 ± 2.1
x2 = 0.9621 | 1341.5 ± 2.1
x2 = 0.9824 | 1342.9 ± 2.1
x2 = 0.9932 | 1343.4 ± 2.1
x2 = 0.9989 | 1343.5 ± 2.1

CCOCCOCCO [3,6-dioxa-1-octanol]
[2]
Details | mass density [kg/m3] | speed of sound [m/s]
– | 983.84 ± 1.6 | 1377.3 ± 2.1

CCOCCOCCO [3,6-dioxa-1-octanol] + CCCN
[1]
Details | speed of sound [m/s]
x1 = 0.0021 | 1215.3 ± 2.1
x1 = 0.0048 | 1215.4 ± 2.1
x1 = 0.0177 | 1218.7 ± 2.1
x1 = 0.0374 | 1223.3 ± 2.1
x1 = 0.0647 | 1230.5 ± 2.1
x1 = 0.0909 | 1236.8 ± 2.1
x1 = 0.1313 | 1247.7 ± 2.1
x1 = 0.1669 | 1257.2 ± 2.1
x1 = 0.2491 | 1278.4 ± 2.1
x1 = 0.3135 | 1293.9 ± 2.1
x1 = 0.3898 | 1310.7 ± 2.1
x1 = 0.4519 | 1322.7 ± 2.1
x1 = 0.4879 | 1329.1 ± 2.1
x1 = 0.5348 | 1337.5 ± 2.1
x1 = 0.5888 | 1344.5 ± 2.1
x1 = 0.6314 | 1349.7 ± 2.1
x1 = 0.6808 | 1355.5 ± 2.1
x1 = 0.7314 | 1359.9 ± 2.1
x1 = 0.7778 | 1363.7 ± 2.1
x1 = 0.8381 | 1367.3 ± 2.1
x1 = 0.876 | 1370 ± 2.1
x1 = 0.9121 | 1371.4 ± 2.1
x1 = 0.9343 | 1373.1 ± 2.1
x1 = 0.9624 | 1374.6 ± 2.1
x1 = 0.9887 | 1375.9 ± 2.1
x1 = 0.9971 | 1376.8 ± 2.1

CCCCOCCOCCOCCCC [5,8,11-trioxapentadecane] + CCCN
[1]
Details | speed of sound [m/s]
x1 = 0.0033 | 1215.3 ± 2.1
x1 = 0.0114 | 1215.5 ± 2.1
x1 = 0.033 | 1217.3 ± 2.1
x1 = 0.0476 | 1218.4 ± 2.1
x1 = 0.0724 | 1221 ± 2.1
x1 = 0.0955 | 1222.8 ± 2.1
x1 = 0.139 | 1227.3 ± 2.1
x1 = 0.1781 | 1231.7 ± 2.1
x1 = 0.2413 | 1237.2 ± 2.1
x1 = 0.3004 | 1242 ± 2.1
x1 = 0.3569 | 1245.8 ± 2.1
x1 = 0.4169 | 1249.5 ± 2.1
x1 = 0.4689 | 1251.9 ± 2.1
x1 = 0.5355 | 1255.2 ± 2.1
x1 = 0.5925 | 1258.2 ± 2.1
x1 = 0.6493 | 1260.8 ± 2.1
x1 = 0.6979 | 1262.9 ± 2.1
x1 = 0.7548 | 1264.7 ± 2.1
x1 = 0.8153 | 1266.6 ± 2.1
x1 = 0.8686 | 1268.2 ± 2.1
x1 = 0.9 | 1269 ± 2.1
x1 = 0.9241 | 1269.5 ± 2.1
x1 = 0.9526 | 1269.9 ± 2.1
x1 = 0.977 | 1270.1 ± 2.1
x1 = 0.991 | 1270.3 ± 2.1

CCCCOCCOCCO [3,6-dioxa-1-decanol]
[2]
Details | mass density [kg/m3] | speed of sound [m/s]
– | 947.98 ± 1.5 | 1358.9 ± 2.1

CCOCCOCCOCC [diethylene glycol diethyl ether]
[2]
Details | mass density [kg/m3] | speed of sound [m/s]
– | 902.76 ± 1.4 | 1241.9 ± 2.1

COCCOCCO [2-(2-methoxyethoxy)ethanol] + CCCN
[1]
Details | speed of sound [m/s]
x1 = 0.0055 | 1215.3 ± 2.1
x1 = 0.0112 | 1217 ± 2.1
x1 = 0.024 | 1220.2 ± 2.1
x1 = 0.0454 | 1225.5 ± 2.1
x1 = 0.0749 | 1233.3 ± 2.1
x1 = 0.0948 | 1238.6 ± 2.1
x1 = 0.1292 | 1249.1 ± 2.1
x1 = 0.1834 | 1264.6 ± 2.1
x1 = 0.2523 | 1284.5 ± 2.1
x1 = 0.309 | 1301.5 ± 2.1
x1 = 0.3831 | 1320.8 ± 2.1
x1 = 0.4484 | 1337 ± 2.1
x1 = 0.5041 | 1349.4 ± 2.1
x1 = 0.5603 | 1360.6 ± 2.1
x1 = 0.6353 | 1373.2 ± 2.1
x1 = 0.6792 | 1380 ± 2.1
x1 = 0.7209 | 1385.9 ± 2.1
x1 = 0.7775 | 1392.7 ± 2.1
x1 = 0.8121 | 1397.5 ± 2.1
x1 = 0.8725 | 1404.9 ± 2.1
x1 = 0.912 | 1408.8 ± 2.1
x1 = 0.9332 | 1411.2 ± 2.1
x1 = 0.9535 | 1413.1 ± 2.1
x1 = 0.9852 | 1416.5 ± 2.1
x1 = 0.9983 | 1417.1 ± 2.1

COCCO [2-methoxyethan-1-ol]
[2]
Details | mass density [kg/m3] | speed of sound [m/s]
– | 960.32 ± 1.5 | 1343.3 ± 2.1

CCCN [propan-1-amine]
[2]
Details | mass density [kg/m3] | speed of sound [m/s]
– | 712.25 ± 0.95 | 1215.2 ± 2.1

COCCOCCOCCO [2-[2-(2-methoxyethoxy)ethoxy]ethanol] + CCCN
[1]
Details | speed of sound [m/s]
x1 = 0.0039 | 1216.1 ± 2.1
x1 = 0.0134 | 1219.9 ± 2.1
x1 = 0.0327 | 1226.9 ± 2.1
x1 = 0.0519 | 1234.2 ± 2.1
x1 = 0.0799 | 1245.4 ± 2.1
x1 = 0.108 | 1258 ± 2.1
x1 = 0.1484 | 1274.9 ± 2.1
x1 = 0.2102 | 1299.7 ± 2.1
x1 = 0.2743 | 1324.5 ± 2.1
x1 = 0.341 | 1347.6 ± 2.1
x1 = 0.3879 | 1361.8 ± 2.1
x1 = 0.4351 | 1375 ± 2.1
x1 = 0.5433 | 1398.7 ± 2.1
x1 = 0.5904 | 1407.5 ± 2.1
x1 = 0.6475 | 1416 ± 2.1
x1 = 0.6873 | 1422.1 ± 2.1
x1 = 0.7353 | 1429.5 ± 2.1
x1 = 0.7806 | 1434.9 ± 2.1
x1 = 0.8226 | 1441.1 ± 2.1
x1 = 0.8873 | 1448.3 ± 2.1
x1 = 0.9295 | 1452.6 ± 2.1
x1 = 0.9565 | 1456.2 ± 2.1
x1 = 0.9751 | 1457 ± 2.1
x1 = 0.9898 | 1458.5 ± 2.1
x1 = 0.9973 | 1458.7 ± 2.1

CCOCCOCCOCC [diethylene glycol diethyl ether] + CCCN
[1]
Details | speed of sound [m/s]
x1 = 0.0035 | 1214.7 ± 2.1
x1 = 0.0108 | 1214.5 ± 2.1
x1 = 0.025 | 1214 ± 2.1
x1 = 0.0591 | 1214.1 ± 2.1
x1 = 0.0865 | 1214.7 ± 2.1
x1 = 0.1134 | 1215.2 ± 2.1
x1 = 0.1662 | 1217.3 ± 2.1
x1 = 0.2091 | 1218.8 ± 2.1
x1 = 0.2738 | 1221.4 ± 2.1
x1 = 0.3214 | 1223.8 ± 2.1
x1 = 0.3658 | 1225.7 ± 2.1
x1 = 0.3939 | 1227 ± 2.1
x1 = 0.4846 | 1230.5 ± 2.1
x1 = 0.5313 | 1232.3 ± 2.1
x1 = 0.5713 | 1233.8 ± 2.1
x1 = 0.6319 | 1235.6 ± 2.1
x1 = 0.6754 | 1236.7 ± 2.1
x1 = 0.7192 | 1238.1 ± 2.1
x1 = 0.7754 | 1239.4 ± 2.1
x1 = 0.8066 | 1240.1 ± 2.1
x1 = 0.8729 | 1241.7 ± 2.1
x1 = 0.9037 | 1242.1 ± 2.1
x1 = 0.9238 | 1242.2 ± 2.1
x1 = 0.9448 | 1242.3 ± 2.1
x1 = 0.9638 | 1242.4 ± 2.1
x1 = 0.9835 | 1242.5 ± 2.1
x1 = 0.9916 | 1242.2 ± 2.1

COCCOCCOCCO [2-[2-(2-methoxyethoxy)ethoxy]ethanol]
[2]
Details | mass density [kg/m3] | speed of sound [m/s]
– | 1043.06 ± 1.7 | 1459 ± 2.1

COCCOCCO [2-(2-methoxyethoxy)ethanol]
[2]
Details | mass density [kg/m3] | speed of sound [m/s]
– | 1016.43 ± 1.6 | 1417.2 ± 2.1

From the NIST ThermoML archive (doi:10.1007/s10765-006-0047-0)
